Measurements reported in PMC5478727, “A Novel Small Molecule GDNF Receptor RET Agonist, BT13, Promotes Neurite Growth from Sensory Neurons in Vitro and Attenuates Experimental Neuropathy in the Rat” (Frontiers in Pharmacology, 2017).
Values belong to the molecule of their own block, whether it stands above or below them.

Assays:
[1] = test system: TrkA; assay: TrkA phosphorylation assay in MG87TrkA cells; assay type: cell-based; details: BT13 10–100 μM, NGF positive control
Procedure: (§1) MG87RET, MG87TrkA, or MG87TrkB were plated on 35 mm tissue culture dishes 1–2 days before the experiment to achieve 90–95% of confluency of the cells at the day of stimulation with tested substances. If necessary, cells were transfected with 4 μg/well of GFRα1-, GFRα3-, or green fluorescent protein (GFP)-expressing plasmid using Lipofectamine 2000 (Invitrogen) for DNA delivery as described by manufacturer. Before the experiment cells were starved in serum-free DMEM containing 15 mM HEPES, pH 7.2 and 1% DMSO for 4 h and stimulated with BT13 or neurotrophic factors. Then cells were washed once with ice-cold PBS containing 1 mM Na3VO4 and 1 mM NaF and lysed on ice in 1 ml per well of RIPA-modified buffer (50 mM Tris-HCl, pH 7.4, 150 mM NaCl, 1 mM EDTA, 1% NP-40, 1% TX-100, 10% glycerol, EDTA-free protease inhibitor cocktail (Roche), 1 mM Na3VO4, 2.5 mg/ml of sodium deoxycholate, 1 mM NaF). Plates were incubated at +4°C on the horizontal shaker for 30 min with vigorous shaking. Afterwards, 80–100 μl aliquot was taken from each well to prepare whole cell lysates. This aliquot was mixed with equal volume of 2x Laemmli loading buffer (4% SDS, 20% glycerol, 10% 2-mercaptoethanol, 0.004% bromphenol blue, 0.125 M Tris HCl, pH 6.8) and boiled for 10 min at 100°C. Remaining cell lysates were used for immunoprecipitation of RET or Trk receptors. […]

[2] = test system: adult rat lumbar DRG sensory neurons; assay: Neurite outgrowth from cultured DRG neurons; assay type: cell-based; details: NGF 10 ng/ml
Procedure: Cultured lumbar DRG (L3–L5) neurons were prepared using a published method (O'Mullane et al., [2013]). After plating onto poly-L-ornithine (5 μg/ml)/laminin (5 μg/ml) coated coverslips for 1 h, DRG neurons were cultured for 24–30 h in fresh Neurobasal A/B27. GFLs, BT13, NGF, and vehicle control were added at the start of this period for a 24–30 h treatment, except when preceded by pre-treatment (1 h) with inhibitors (50 μM LY294002; 2 μM SU6656, […]; Biomol Research Laboratories, Plymouth Meeting, PA, USA). DRG neurons were then fixed (4% paraformaldehyde) and processed for immunocytochemistry with 1:200 Mouse anti-β III tubulin/AlexaFluor 594 (Sigma-Aldrich Cat# T8660 RRID:AB_477590) and 1:5,000 rabbit anti-calcitonin gene-related peptide/AlexaFluor 488 (Sigma-Aldrich Cat# C8198 RRID:AB_259091) and DAPI for nuclear staining (0.5 μg/ml, Molecular Probes). Image analysis of multichannel 12 bit Zeiss .ZVI or .TIF files (captured with a Zeiss Imager.M1/MRm camera/Zen software; Carl Zeiss Australia, North Ryde, NSW, Australia) was then performed by a researcher blinded to the experimental condition. Neurite initiation was measured by a single parameter (proportion of neurons with neurites longer than the soma diameter). Neurite elongation was measured by batch processing (HCA-Vision software; CSIRO Mathematical and Information Sciences, North Ryde, NSW, Australia) to obtain four parameters—Root number: number of primary neurites; Maximum length: length of longest neurite; Branch points: number of neurite branch points; and Total length: sum of neurite lengths (Kalous and Keast, [2010]; Kalous et al., [2012]). The number of neurons of each immunocytochemical class counted on each coverslip (technical replicates) was 50 for neurite initiation and 20 for neurite elongation. A minimum of three cultures from different rats (biological replicates) were analyzed for each treatment group.

[3] = test system: Akt and Erk phosphorylation in MG87TrkA; assay: Erk1/2 and Akt phosphorylation assay in MG87TrkA cells; assay type: cell-based, murine; details: BT13 10–100 μM, NGF positive control
Procedure: as §1

[4] = biological target: COMT (catechol-O-methyl transferase); assay: CEREP COMT (catechol-O-methyl transferase); assay type: biochemical; details: reference compound; Cat. No. 0457
[5] = biological target: T1, Protein Serine/Threonine Phosphatase, PP2A (Homo sapiens, UniProt P67775); assay: CEREP Protein Serine/Threonine Phosphatase, PP2A; assay type: biochemical
T1 construct: purchased CEREP (contract assay) 3953
T1 sequence (P67775 whole entry): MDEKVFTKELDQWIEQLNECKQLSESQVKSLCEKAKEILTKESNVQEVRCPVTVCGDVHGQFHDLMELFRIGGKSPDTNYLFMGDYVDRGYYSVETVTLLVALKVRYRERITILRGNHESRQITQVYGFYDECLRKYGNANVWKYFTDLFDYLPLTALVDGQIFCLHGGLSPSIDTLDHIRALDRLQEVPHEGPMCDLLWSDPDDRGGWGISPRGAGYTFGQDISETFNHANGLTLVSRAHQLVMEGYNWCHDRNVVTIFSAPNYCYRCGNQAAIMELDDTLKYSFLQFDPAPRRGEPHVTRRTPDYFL

[6] = test system: Akt and Erk phosphorylation in MG87TrkB; assay: Erk1/2 and Akt phosphorylation assay in MG87TrkB cells; assay type: cell-based, murine; details: BT13 10–100 μM, BDNF positive control
Procedure: as §1

[7] = biological target: T2, TrkB (Rattus norvegicus, UniProt Q63604); assay: TrkB phosphorylation assay in MG87TrkB cells; assay type: cell-based; details: BT13 10–100 μM, BDNF positive control
T2 construct: expressed in transfected cells; host or cells: MG87 murine fibroblasts (MG87TrkB)
T2 sequence (Q63604 32-821): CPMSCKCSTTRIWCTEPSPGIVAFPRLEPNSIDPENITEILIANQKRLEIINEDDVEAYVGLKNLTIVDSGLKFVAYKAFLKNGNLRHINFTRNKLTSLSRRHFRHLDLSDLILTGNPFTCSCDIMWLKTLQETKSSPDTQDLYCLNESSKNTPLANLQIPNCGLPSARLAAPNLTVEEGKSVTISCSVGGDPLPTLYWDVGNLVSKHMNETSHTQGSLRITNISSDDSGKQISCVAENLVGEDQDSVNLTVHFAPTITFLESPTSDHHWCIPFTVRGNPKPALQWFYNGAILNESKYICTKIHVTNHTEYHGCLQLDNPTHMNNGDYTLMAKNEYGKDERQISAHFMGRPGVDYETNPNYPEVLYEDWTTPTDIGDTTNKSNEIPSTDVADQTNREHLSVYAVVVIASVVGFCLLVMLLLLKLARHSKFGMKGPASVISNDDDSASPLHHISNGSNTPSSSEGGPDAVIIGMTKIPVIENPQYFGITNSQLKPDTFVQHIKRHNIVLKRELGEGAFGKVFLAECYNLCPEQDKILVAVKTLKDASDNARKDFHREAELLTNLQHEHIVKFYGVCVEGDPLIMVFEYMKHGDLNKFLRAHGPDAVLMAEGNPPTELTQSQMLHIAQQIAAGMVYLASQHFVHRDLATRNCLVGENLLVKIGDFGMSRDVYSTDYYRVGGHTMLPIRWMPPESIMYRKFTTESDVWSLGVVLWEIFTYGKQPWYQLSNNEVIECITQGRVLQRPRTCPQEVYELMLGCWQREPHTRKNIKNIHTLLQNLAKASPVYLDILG
Procedure: as §1

[8] = CGRP-positive neurons, vs control, BT13 100 ng/ml

Molecule: nerve growth factor [NGF]
- TrkA phosphorylation, Western blotting [1]: responded
- neurite initiation or extension ([2]; CGRP-negative neurons, ARTN 30 ng/ml, BT13 100 ng/ml): no effect
- neurite initiation ([2]; CGRP-positive neurons, ARTN 30 ng/ml, BT13 100 ng/ml, overnight): significantly increased
- neurite elongation, root number, mean difference ([2]; CGRP-positive neurons, vs control): 3 ± 1
- neurite elongation, branch points, mean difference [2, 8]: 48 ± 3
- neurite elongation, maximum length, mean difference [2, 8]: 99 ± 8 μm
- neurite elongation, total length, mean difference [2, 8]: 1,421 ± 108 μm
- proportion of DRG neurons that expressed CGRP in culture ([2]; ARTN 30 ng/ml, BT13 100 ng/ml): did not alter
- Akt and Erk phosphorylation [3]: promoted Akt and Erk phosphorylation

- IC50 [4]: 28 nM
Molecule: O=C(c1cc(O)c(O)c([N+](=O)[O-])c1)c1ccccc1F [Ro 41-0960, reference compound]

Molecule: COC[C@@H]([C@H](O)[C@H](O)C(=O)NCC[C@H](C)c1nc(/C=C/C[C@@H]2O[C@]3(C[C@@H](O)[C@@H]2C)O[C@H]([C@H](C[C@H](O)[C@H](C)[C@H](O)[C@H](C)/C=C(C)/C(C)=C/C=C/C(C)=C\C#N)OC)[C@H](OP(=O)(O)O)C3(C)C)co1)N(C)C [Calyculin A, reference compound]
- IC50 [5]: 0.49 nM

- TrkB phosphorylation, Western blotting [7]: responded
B1: brain-derived neurotrophic factor (protein, UniProt P23560 19-247, looked up)
Neurotrophic factor BDNF …: APMKEANIRGQGGLAYPGVRTHGTLESVNGPKAGSRGLTSLADTFEHVIEELLDEDQKVRPNEENNKDADLYTSRVMLSSQVPLEPPLLFLLEEYKNYLDAANMSMRVRRHSDPARRGELSVCDSISEWVTAADKKTAVDMSGGTVTVLEKVPVSKGQLKQYFYETKCNPMGYTKEGCRGIDKRHWNSQCRTTQSYVRALTMDSKKRIGWRFIRIDTSCVCTLTIKRGR
notes: neurotrophin, natural ligand of TrkB
- Akt and Erk phosphorylation [6]: promoted Akt and Erk phosphorylation
